Measurements reported in article PMC9609767, “Radiosynthesis and Preclinical Evaluation of an ^18F-Labeled Triazolopyridopyrazine-Based Inhibitor for Neuroimaging of the Phosphodiesterase 2A (PDE2A)” (Pharmaceuticals, 2022).
Several values for one entry are separate records, joined by “and”; a condition that tells them apart may be missing. Identical values can stand only once. Like-named read-outs stand apart in the source and are kept apart here.

What was measured:
[1] = In vivo metabolism in CD-1 mice (radio-HPLC of plasma and brain); conditions: mouse
Procedure: Two non-anesthetized female CD-1 mice (30 and 33 g, 90 days) were injected intravenously with [^18F]11 (28 MBq = 94 nmol/kg and 25 MBq = 78 nmol/kg). The animals were anesthetized by isoflurane inhalation at 28 min p.i. and blood was collected from the retro-orbital plexus, followed by cervical dislocation at 30 min p.i. Immediately afterwards, the brains were isolated, washed twice with isotonic saline and stored on ice. Plasma was obtained from the whole blood sample by centrifugation (8.000 rpm, 2 min, ambient temperature). All samples were weighed and the radioactivity was measured in a dose calibrator (ISOMED 2010 Dose Calibrator, NUVIA Instruments GmbH, Dresden, Germany). Afterwards, the brains were homogenized in 1 mL demineralized water on ice (Potter S, B. Braun Biotech, Melsungen, Germany).
Protein precipitation was performed by the addition of ice-cold ACN/H2O (9:1, v/v) in a ratio of 4:1 (v/v) of organic solvent to plasma or brain homogenate, respectively. The samples were vortexed for 3 min, equilibrated on ice for 3 min, and centrifuged for 10 min at 10,000 rpm and the supernatant collected. The precipitates were washed with 100 μL of the solvent mixture and subjected to the same procedure. The combined supernatants were concentrated at 70 °C under argon flow to a final volume of approximately 100 μL and analysed by analytical radio-HPLC with a gradient system (see radiochemistry general section). The peak corresponding to the radiotracer in the radio-chromatogram was identified by co-injecting the sample with the reference compound 11. To determine the percentage of activity in the supernatants compared to total activity, aliquots of each step as well as the precipitates were quantified by an automated gamma counter (1480 WIZARD, Perkin Elmer, Turku, Finland). For plasma and brain samples recoveries of ≥91% of total activity were obtained.

rat PDE2A = target: T1, rat PDE2A (Rattus norvegicus, UniProt Q01062); test: In vitro autoradiography with rat brain cryosections; type: binding; conditions: for Kd: read-out: apparent KD
T1 construct: Frozen sagittal 12 µm brain sections obtained from female SPRD and male Wistar-Han rats; from tissue; host or cells: rat brain cryosections (female SPRD and male Wistar-Han rats)
T1 sequence (Q01062 1-928): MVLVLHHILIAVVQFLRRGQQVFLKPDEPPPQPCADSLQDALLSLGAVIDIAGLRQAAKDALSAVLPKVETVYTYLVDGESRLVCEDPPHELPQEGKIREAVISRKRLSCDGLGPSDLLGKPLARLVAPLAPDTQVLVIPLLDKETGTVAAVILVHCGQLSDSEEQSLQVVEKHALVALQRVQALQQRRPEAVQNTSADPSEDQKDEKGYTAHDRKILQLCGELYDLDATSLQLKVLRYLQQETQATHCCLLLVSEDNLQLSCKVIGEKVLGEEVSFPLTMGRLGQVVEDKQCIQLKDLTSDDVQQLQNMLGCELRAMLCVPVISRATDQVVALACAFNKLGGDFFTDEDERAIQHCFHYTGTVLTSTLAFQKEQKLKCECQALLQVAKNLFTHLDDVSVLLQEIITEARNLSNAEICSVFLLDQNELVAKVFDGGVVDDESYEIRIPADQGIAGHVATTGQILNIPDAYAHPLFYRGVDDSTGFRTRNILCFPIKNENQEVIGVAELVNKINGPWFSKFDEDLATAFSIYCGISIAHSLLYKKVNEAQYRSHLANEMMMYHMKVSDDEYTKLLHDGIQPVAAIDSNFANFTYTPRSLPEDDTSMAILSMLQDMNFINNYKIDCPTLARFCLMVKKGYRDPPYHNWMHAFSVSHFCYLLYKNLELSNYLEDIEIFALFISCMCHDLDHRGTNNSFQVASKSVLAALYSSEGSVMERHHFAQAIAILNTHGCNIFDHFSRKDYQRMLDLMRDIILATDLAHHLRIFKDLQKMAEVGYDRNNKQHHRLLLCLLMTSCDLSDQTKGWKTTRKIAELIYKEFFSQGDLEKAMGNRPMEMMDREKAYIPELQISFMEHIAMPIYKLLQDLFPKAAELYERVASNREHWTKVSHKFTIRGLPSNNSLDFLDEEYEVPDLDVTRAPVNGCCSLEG
Procedure: Frozen sagittal 12 µm brain sections obtained from female SPRD and male Wistar-Han rats (10–12 weeks old) were thawed, dried in a stream of cold air, and pre-incubated for 15 min with incubation buffer (50 mM TRIS-HCl, pH 7.4; supplemented with 1 mM MgCl2, 1 mM CaCl2, 2 mM KCl, and 2 U/mL Adenosine deaminase) at ambient temperature. Afterwards, the buffer was decanted and the cryosections dried again in a stream of cold air before covering with the radioligand in incubation buffer (~0.1 MBq [^18F]11/mL; Am at the time of the incubation ~10 GBq/µmol) for incubation at ambient temperature for 90 min.
The incubation was terminated by pouring off the incubation solution and washing the slides twice with ice-cold buffer (50 mM TRIS-HCl, pH 7.4/4 °C) for 2 min and rinsing by dipping in ice-cold demineralised water. Immediately afterwards, the sections were dried in a stream of cold air and exposed along with appropriate radioactive standards (1 µL of serial dilutions of the radioligand in incubation buffer, pipetted on a microscopic glass slide and air dried) to an ^18F-sensitive image plate for 120 min. Finally, the imaging plate was scanned at the highest possible resolution (pixel size 12.6 µm × 12.6 µm) in a phosphor imager (HD-CR 35; Duerr NDT GmbH, Bietigheim Bissingen, Germany) and the digital image analysed with an image analysis program (Aida Image Analyzer v. 4.26; Elysia-raytest GmbH, Straubenhardt, Germany).
For the determination of the protein concentration, four dried 12 µm cryosections were scraped from the microscopic glass slides, transferred in an Eppendorf tube and solubilised with 200 µL of demineralised water. The protein concentration of this solution was determined by a commercial assay (Pierce™ BCA Protein Assay Kit, Thermo Fisher Scientific, Schwerte, Germany). The area of the cryosections was determined during the analysis of the digitized autoradiographic images, and the volume was calculated by multiplying the area with the thickness of the slices. Finally, the protein concentration of the tissue was calculated (37 mg protein/g wet weight).

[2] = logD by shake flask method (n-octanol/PBS); type: physicochemical; conditions: n-octanol/phosphate-buffered saline, n = 4
Procedure: In order to estimate the lipophilicity of [^18F]11, the partition coefficient was determined by the shake flask method using n-octanol and phosphate-buffered saline as partition system. […] The chemical stability of the radiotracer was investigated by incubation in phosphate-buffered saline (PBS) and n-octanol at 30 °C.
The determination of stability and logD value has been performed according to the procedures described by Sadeghzadeh and Wenzel et al..

[3] = 30 min p.i., i.v., n = 2 (individual values)
[4] = caudate putamen, female SPRD rat
[5] = caudate putamen, male Wistar-Han rat

CCCC(O)c1ccc([18F])c(-c2nnc3c(C)nc4ccc(C5CC5)nc4n23)c1 (centres unmarked) [[^18F]11]
fraction of non-metabolized radiotracer in brain [1, 3]: 42/50 | fraction of non-metabolized radiotracer in plasma [1, 3]: about 7/11 | radiometabolites in the brain (% of the activity) ([1]; 30 min post injection): ~ 50% | Kd (rat PDE2A; caudate nucleus and putamen, homologous competition, overall value (SPRD and Wistar)): ~0.2 nM and 0.24 nM | apparent Bmax (rat PDE2A; caudate nucleus and putamen, overall value (SPRD and Wistar)): ~20 pmol/mg protein and 16 pmol/mg protein | apparent Bmax (rat PDE2A; [4]): 14 pmol/mg protein | Kd (rat PDE2A; [4]): 0.38 nM | apparent Bmax (rat PDE2A; [5]): 18 pmol/mg protein | Kd (rat PDE2A; [5]): 0.1 nM | caudate putamen-to-cerebellum ratio (rat PDE2A; in vitro autoradiography, equilibrium conditions): about 2 | logD [2]: 1.79 ± 0.66
